Data from patent US8183388B2, “Androgen receptor modulator and uses thereof” (Eli Lilly and Company, priority 2009, dated 2012).

What was measured:
[1] = target: T1, human MR (mineralocorticoid receptor) (Homo sapiens, UniProt P08235); assay: Steroid hormone nuclear receptor binding assay, MR; conditions: HEK293 lysate overexpressing human MR, [3H]-aldosterone
T1 construct: expressed in transfected cells; host or cells: HEK293 (lysate, 293-MR)
T1 sequence (P08235 1-984): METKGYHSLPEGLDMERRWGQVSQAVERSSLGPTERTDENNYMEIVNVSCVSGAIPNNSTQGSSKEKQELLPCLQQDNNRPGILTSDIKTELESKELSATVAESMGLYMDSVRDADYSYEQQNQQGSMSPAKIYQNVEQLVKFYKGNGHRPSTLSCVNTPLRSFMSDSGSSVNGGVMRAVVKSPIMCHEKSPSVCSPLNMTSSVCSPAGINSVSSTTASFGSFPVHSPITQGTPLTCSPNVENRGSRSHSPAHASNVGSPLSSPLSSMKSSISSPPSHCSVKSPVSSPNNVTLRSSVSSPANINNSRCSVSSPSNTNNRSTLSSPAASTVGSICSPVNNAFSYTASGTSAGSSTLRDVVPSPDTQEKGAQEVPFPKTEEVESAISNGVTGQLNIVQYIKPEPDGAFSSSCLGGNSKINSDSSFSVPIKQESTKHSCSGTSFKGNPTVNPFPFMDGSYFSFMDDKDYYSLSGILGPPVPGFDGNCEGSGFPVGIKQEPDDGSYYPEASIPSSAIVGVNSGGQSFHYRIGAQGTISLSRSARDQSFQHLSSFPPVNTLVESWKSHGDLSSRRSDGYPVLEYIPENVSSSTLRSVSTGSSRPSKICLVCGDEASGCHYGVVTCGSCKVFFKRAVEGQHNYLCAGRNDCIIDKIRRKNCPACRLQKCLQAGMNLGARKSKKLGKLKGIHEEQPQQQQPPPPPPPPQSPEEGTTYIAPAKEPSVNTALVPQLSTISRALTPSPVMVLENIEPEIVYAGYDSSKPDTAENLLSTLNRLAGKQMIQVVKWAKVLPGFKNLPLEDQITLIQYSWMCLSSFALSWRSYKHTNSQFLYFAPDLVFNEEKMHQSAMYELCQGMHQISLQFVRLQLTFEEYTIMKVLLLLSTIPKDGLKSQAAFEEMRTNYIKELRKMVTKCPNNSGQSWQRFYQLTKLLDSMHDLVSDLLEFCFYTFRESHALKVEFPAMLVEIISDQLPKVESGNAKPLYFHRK
Experimental: (§1) Cell lysates from human embryonic kidney HEK293 cells overexpressing human MR (mineralocorticoid receptor), GR (glucocorticoid receptor), AR (androgen receptor), or PR (progesterone receptor) are used for receptor-ligand competition binding assays to determine Ki values. Typical procedures are provided below
(§2) Briefly, steroid receptor competition binding assays are run in a buffer containing 20 mM HEPES buffer (pH=7.6), 0.2 mM EDTA, 75 mM NaCl, 1.5 mM MgCl2, 20% glycerol, 20 mM sodium molybdate, 0.2 mM DTT (dithiothreitol), 20 μg/mL aprotinin and 20 μg/mL leupeptin (assay buffer). Typically, steroid receptor binding assays include radio-labeled ligands, such as 0.25 nM [^3H]-aldosterone for MR binding, 0.3 nM [^3H]-dexamethasone for GR binding, 0.36 nM [^3H]-methyltrienolone for AR binding, and 0.29 nM [^3H]-methyltrienolone for PR binding, and either 20 μg 293-MR lysate, 20 μg 293-GR lysate, 22 μg 293-AR lysate, or 40 μg 293-PR lysate per well. Assays are typically run in 96-well format. Competing test compounds are added at various concentrations ranging from about 0.01 nM to 10 μM. Non-specific binding is determined in the presence of 500 nM aldosterone for MR binding, 500 nM dexamethasone for GR binding, or 500 nM methyltrienolone for AR and PR binding. […] After an incubation of 2 hours, plates are read in a Wallac Microbeta counter. […]

[2] = target: T2, human PR (progesterone receptor) (Homo sapiens, UniProt P06401); assay: Steroid hormone nuclear receptor binding assay, PR; conditions: HEK293 lysate overexpressing human PR, [3H]-methyltrienolone
T2 construct: expressed in transfected cells; host or cells: HEK293 (lysate, 293-PR)
T2 sequence (P06401 1-933): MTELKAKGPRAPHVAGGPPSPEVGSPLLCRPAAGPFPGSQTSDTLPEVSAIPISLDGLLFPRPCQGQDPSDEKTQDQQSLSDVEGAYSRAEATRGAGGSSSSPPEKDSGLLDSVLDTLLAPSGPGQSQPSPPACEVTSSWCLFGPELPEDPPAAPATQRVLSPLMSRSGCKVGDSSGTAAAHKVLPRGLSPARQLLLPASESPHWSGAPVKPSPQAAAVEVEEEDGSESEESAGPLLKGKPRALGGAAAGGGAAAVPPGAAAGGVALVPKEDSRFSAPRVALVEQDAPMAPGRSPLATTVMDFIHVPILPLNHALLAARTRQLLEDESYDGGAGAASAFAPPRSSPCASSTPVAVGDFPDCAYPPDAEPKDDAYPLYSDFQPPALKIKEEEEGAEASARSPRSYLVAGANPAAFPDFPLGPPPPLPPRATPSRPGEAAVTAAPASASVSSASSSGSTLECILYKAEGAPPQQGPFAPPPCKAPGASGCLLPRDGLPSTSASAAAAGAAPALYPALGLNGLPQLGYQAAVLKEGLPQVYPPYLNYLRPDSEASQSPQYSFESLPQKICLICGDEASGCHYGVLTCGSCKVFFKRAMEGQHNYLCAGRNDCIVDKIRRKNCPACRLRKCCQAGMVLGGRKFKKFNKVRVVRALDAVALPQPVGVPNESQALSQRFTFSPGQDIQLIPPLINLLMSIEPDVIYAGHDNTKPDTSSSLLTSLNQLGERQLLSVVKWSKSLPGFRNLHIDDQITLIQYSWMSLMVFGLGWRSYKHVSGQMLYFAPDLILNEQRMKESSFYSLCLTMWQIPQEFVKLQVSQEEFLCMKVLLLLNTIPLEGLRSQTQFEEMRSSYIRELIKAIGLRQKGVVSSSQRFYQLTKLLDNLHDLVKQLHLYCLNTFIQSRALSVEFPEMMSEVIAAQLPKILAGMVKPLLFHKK
Experimental: as §1, §2

## CC(C)OC(=O)N[C@H]1Cc2c(n(C[C@H]3OCC[C@@H]3O)c3ccc(C#N)cc23)C1 [compound of Formula (I), [(S)-7-Cyano-4-((2R,3S)-3-hydroxytetrahydrofuran-2-ylmethyl)-1,2,3,4-tetrahydrocyclopenta[b]indol-2-yl]-carbamic acid isopropyl ester]
[1]
  Ki: > 4 µM
[2]
  Ki: > 4 µM
